Active and inactive are the calls of the source.
Key:
[1] = target: T1, Calpain-2 catalytic subunit (Sus scrofa, UniProt P43367); assay: pig calpain II inhibitor potency, dose response, biochemical, fluorogenic peptide substrate (AID 1420); assay type: functional
T1 sequence (P43367 whole entry): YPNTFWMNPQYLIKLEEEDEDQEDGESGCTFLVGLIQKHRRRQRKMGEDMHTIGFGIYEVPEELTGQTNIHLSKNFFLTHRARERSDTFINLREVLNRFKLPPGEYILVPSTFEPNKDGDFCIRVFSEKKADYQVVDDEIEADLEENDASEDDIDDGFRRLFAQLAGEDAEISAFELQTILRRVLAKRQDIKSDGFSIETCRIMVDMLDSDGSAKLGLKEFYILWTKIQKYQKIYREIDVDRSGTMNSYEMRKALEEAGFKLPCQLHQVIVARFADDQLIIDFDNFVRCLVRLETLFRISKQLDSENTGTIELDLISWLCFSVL

[2] = cytotoxicity in HEK-293T cells, dose response, cytotoxicity control for TCR NF-kB inhibitor project, luminescence, T-cell screen hits (AID 489026); assay type: functional, cell-based;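 note: cells exposed to compound about 14 hours before the viability readout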
[3] = target: Induced myeloid leukemia cell differentiation protein Mcl-1 (Homo sapiens, UniProt Q07820); assay type: functional
Sequence of Induced myeloid leukemia cell differentiation protein Mcl-1 (Q07820 whole entry): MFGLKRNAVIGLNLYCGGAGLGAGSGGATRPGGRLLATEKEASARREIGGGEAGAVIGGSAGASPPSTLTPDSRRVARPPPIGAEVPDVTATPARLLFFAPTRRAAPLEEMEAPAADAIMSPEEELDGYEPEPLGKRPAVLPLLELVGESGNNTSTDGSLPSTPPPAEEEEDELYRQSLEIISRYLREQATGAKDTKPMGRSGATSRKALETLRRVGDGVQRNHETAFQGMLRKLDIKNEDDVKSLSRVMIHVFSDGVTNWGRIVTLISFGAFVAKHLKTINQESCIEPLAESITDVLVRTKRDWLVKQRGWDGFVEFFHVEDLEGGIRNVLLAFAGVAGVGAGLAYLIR

[4] = target: T2, Polyadenylate-binding protein 1 (Homo sapiens, UniProt P11940); assay: PABP1 MLLE–PAM2 interaction inhibitors, dose response, miRNA deadenylation inhibitor project, biochemical, fluorescence polarization, Cy5-PAM2 peptide, secondary (AID 602260); assay type: functional; conditions: read-out: IC50_Mean
T2 sequence (P11940 whole entry): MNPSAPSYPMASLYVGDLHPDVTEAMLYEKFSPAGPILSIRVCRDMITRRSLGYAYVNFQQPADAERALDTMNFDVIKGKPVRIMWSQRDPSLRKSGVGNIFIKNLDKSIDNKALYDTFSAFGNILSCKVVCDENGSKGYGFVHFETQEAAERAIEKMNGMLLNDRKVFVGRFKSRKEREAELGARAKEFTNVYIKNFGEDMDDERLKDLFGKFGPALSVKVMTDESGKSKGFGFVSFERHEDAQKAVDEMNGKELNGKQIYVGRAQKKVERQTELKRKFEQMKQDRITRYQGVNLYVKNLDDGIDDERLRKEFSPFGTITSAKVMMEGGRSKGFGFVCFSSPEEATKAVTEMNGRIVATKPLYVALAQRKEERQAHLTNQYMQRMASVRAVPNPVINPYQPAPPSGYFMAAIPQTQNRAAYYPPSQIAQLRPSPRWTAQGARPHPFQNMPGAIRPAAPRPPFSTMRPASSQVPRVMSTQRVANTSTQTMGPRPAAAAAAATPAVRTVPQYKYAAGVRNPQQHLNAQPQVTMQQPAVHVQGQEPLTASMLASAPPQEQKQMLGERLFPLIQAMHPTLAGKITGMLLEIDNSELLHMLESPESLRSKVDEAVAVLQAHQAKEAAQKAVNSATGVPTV

[5] = target: T2, Polyadenylate-binding protein 1; assay: PABP1 MLLE–PAM2 binding inhibitor potency, dose response, biochemical, fluorescence polarization, FITC-PAM2 peptide (AID 602259); assay type: functional; conditions: read-out: IC50_Mean
[6] = target: T3, Ubiquitin-conjugating enzyme E2 N (Homo sapiens, UniProt P61088); assay type: functional;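 note: Dose-response confirmation in a TR-FRET assay detecting UBC13-driven polyubiquitin chain formation, inhibition measured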
T3 sequence (P61088 whole entry): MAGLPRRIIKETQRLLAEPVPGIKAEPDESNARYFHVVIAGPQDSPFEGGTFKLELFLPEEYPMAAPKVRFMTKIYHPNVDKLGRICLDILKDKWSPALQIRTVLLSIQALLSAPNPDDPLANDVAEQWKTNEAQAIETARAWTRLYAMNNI

P388/ADR = assay: cells; assay type: functional; conditions: Mus musculus
SN12K1 = assay: cells; assay type: functional; conditions: Homo sapiens
P388 = assay: cells; assay type: functional; conditions: Mus musculus
[7] = Luminescence Cell-Based Dose Retest to Confirm Inhibitors of Cancer Stem Cells. [Related pubchem assays (depositor defined):AID2717, AID2721]; assay type: functional; conditions: Homo sapiens
cells [8] = assay type: functional, cell-based
cells [9] = assay type: functional, cell-based; remark: listed apart in the source
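Throughout, for AC50: cells exposed to compound for roughly 70 hours or longer before luminescence read.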

Cc1ccc(OCc2nnc(SCC(=O)c3cccc([N+](=O)[O-])c3)n2C)cc1
IC50 [1]: 4.87 µM (not active)

Cc1ccc(C(=O)NC(=S)NCc2cccnc2)c(C)c1
IC50 [1]: > 50 µM (not active)

O=C(NCCOc1ccccc1)c1cc([N+](=O)[O-])ccc1N1CCOCC1
IC50 [2]: > 80 µM (inactive)

COc1cc(NS(=O)(=O)c2ccc(NC(=S)NC(=O)c3sc4cc(F)ccc4c3Cl)cc2)nc(OC)n1
IC50 [3]: 4.37 µM (not active)
IC50 [4]: > 66 µM (inactive)
IC50 [5]: > 66 µM (inactive)

CCOC(=O)CSc1nc2ccccc2c(=O)n1NC(=O)c1ccccc1
IC50 [6]: > 20 µM (inactive)

Cc1[nH]n(-c2ccc(C(=O)O)cc2)c(=O)c1CCO
IC50 [1]: > 50 µM (not active)

CC[C@@H](C)[C@@H]1CN([C@@H](CN2CCC[C@H]2CN2C(N)=NC[C@H]2CC(C)C)C(C)C)C(=N)N1CCCC1CCCC1
IC50 [6]: > 20 µM (inactive)

Cc1cc(C(=O)NCCN(C)C)c2nc3ccccc3cc2c1
GI50 (P388/ADR): 0.341 µM (active)
GI50 (SN12K1): 0.519 µM (active)
GI50 (P388): 0.0418 µM (active)

ClCc1ccc2ccc3ccc(CCl)nc3c2n1
GI50 (P388/ADR): 0.883 µM (active)
GI50 (SN12K1): 1.87 µM (inactive)
GI50 (P388): 1.51 µM (inactive)

CC(O)CCC(=O)c1ccoc1 (stereo not given)
GI50 (P388/ADR): 3660 µM (inactive)
GI50 (SN12K1): 7230 µM (inactive)
GI50 (P388): 4940 µM (inactive)

O=[N+]([O-])c1cccc(-c2nc3ccccc3s/c2=N/O)c1
IC50 [1]: 22 µM (not active)

CC(C)C[C@@H]1CN=C(N)N1C[C@@H]1CCCN1C[C@H](C)N1C[C@@H](Cc2ccccc2)N(CCCC2CCCC2)C1=N
IC50 [6]: > 20 µM (inactive)

COc1ccc2cc1Oc1ccc(cc1)C[C@H]1c3cc(c(OC)cc3CCN1C)Oc1c(OC)c(OC)cc3c1[C@H](C2)N(C)CC3 [FANCHININ]
GI50 (P388/ADR): 3.05 µM (inactive)
GI50 (SN12K1): 7.06 µM (inactive)
GI50 (P388): 1.77 µM (inactive)

NS(=O)(=O)c1ccc(CCNC(=O)c2cc(-c3ccco3)nc3ccccc23)cc1
IC50 [6]: > 20 µM (inactive)

COc1ccc(Nc2nc3cc(C)ccc3cc2C#N)c(OC)c1
IC50 [2]: > 80 µM (inactive)

Cc1nc(=O)n2c(c1C(=O)Nc1ccc(Cl)cc1)NCC2
GI50 (P388): > 31.6 µM (inactive)

CCCCCc1cc(=O)oc2c(C(CCN3CCCCC3)c3cc(OC)c(OC)c(OC)c3)c(OC)cc(OC)c12 (stereo not given)
AC50 [7]: 6.58 µM (active)
IC50 [6]: > 20 µM (inactive)

CCCCC(=O)N1CCN(c2nc3ccc(F)cc3s2)CC1
EC50 (cells [8]): > 350 µM (not active)
EC50 (cells [9]): 4.69 µM (active)
